Laboratory results reported in patent EP4737453A1, “NOVEL SELENOPHENE DERIVATIVES” (Aigen Sciences Inc., priority 2023, dated 2025).
Where two headings read alike, the source gives them in different places. Blank lines part the entries; values can stand above or below the compound they belong to.

Key:
NCI-H358 = assay: Cell Growth Inhibition Assay (3D CellTiter-Glo); format: cell-based; conditions: Homo sapiens, read-out: Cell growth IC50
Protocol: Cell Growth Inhibition Assay
In this experimental example, the cell growth inhibitory effect of compounds according to the present invention and positive control compounds in tumor cell lines was examined.
The cell culture medium containing the compound was replaced by 100 µL every 3 days. Luminescence analysis was performed using the 3D CellTiter-Glo Luminescent Cell Viability Assay Kit (Promega, USA) (Promega catalog number G9681). […] The percent cell growth inhibition rate was calculated from the measured relative luminescence unit (RLU) as follows. Inhibition rate = 1−((RLU compound−RLU blank)/(RLU control−RLU blank)) X 100 [formula]

[1] = target: T1, SOS1 and KRAS G12C interaction (Homo sapiens, UniProt Q07889); assay: Biochemical analysis of the inhibitory activity of SOS1 and KRAS G12C interaction (time-resolved fluorescence, 665/615 nm)
T1 sequence (Q07889 564-1049 limits assumed): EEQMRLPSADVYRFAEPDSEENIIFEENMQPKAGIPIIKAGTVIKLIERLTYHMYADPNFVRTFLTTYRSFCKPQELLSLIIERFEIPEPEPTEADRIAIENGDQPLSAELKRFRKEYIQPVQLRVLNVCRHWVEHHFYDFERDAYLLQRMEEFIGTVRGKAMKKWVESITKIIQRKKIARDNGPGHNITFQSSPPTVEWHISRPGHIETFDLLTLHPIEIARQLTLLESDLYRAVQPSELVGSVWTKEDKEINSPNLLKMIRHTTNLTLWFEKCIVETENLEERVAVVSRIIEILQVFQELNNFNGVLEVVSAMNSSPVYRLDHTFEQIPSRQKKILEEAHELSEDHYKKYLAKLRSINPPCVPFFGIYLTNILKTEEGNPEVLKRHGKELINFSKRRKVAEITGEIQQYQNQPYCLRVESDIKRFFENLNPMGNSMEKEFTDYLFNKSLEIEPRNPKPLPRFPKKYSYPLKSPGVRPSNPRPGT
Protocol: Biochemical analysis of the inhibitory activity of SOS1 and KRAS G12C interaction
In this experimental example, the efficacy of the compound according to the present invention in inhibiting the binding of KRAS and SOS1 was biochemically measured. A KRAS G12C working solution was prepared by adding biotin-linked KRAS G12C protein and europium-linked streptavidin to assay buffer solution (20 mM HEPES, 50 mM NaCl, 200 µg/mL […] (BSA), 0.01% Pluronic F127). Then, SOS1, in which a tag consisting of six histidine residues is covalently linked, and anti-histidine tag antibody D2 were added to the assay buffer to prepare an SOS1 working solution. After these two working solutions were added to the wells of a well plate, solutions diluted according to the experimental concentration of the test compound from the 10 mM dimethyl sulfoxide (DMSO) stock solution of the Example compound or positive control compound were added to the wells in 100 nL aliquots using an Echo automatic dispenser (Beckman Coulter, USA), or a DMSO blank was added to the wells.

MIA-PaCa-2 = assay: Reactive oxygen species (ROS) production assay; format: cell-based; conditions: MIA-PaCa-2 cells, 10 µM, 24 hours; Figure 3
Protocol: Reactive oxygen species (ROS) production assay
In this experimental example, it was examined that the compound according to the present invention has the effect of increasing reactive oxygen in tumor cells.
MIA-PaCa-2 (Korea Cell Line Bank KCLB No. 21420), a cancer cell line harboring KRAS G12C mutation, was cultured in a cell culture medium containing RPMI1640 (Gibco, USA, catalog no. 11875-119), 10% fetal bovine serum (HyClone, USA, catalog no. SH30919.03), and 1 × diluted HyClone Antibiotic Antimycotic solution (HyClone, USA, catalog no. SV30079.01). 3 × 10^5 cells were seeded per well in a 6-well plate and cultured for 1 day at 37°C under 5% CO2 conditions. […] The cells were then collected in a microtube and analyzed for fluorescence using a BD LSRFortessa™ X-20 Cell Analyzer (BD Biosciences, USA) (excitation wavelength: 488 nm, emission wavelength: 535 nm). The fluorescence intensity due to the increase in reactive oxygen species was measured for 10,000 cells. Among the cells treated with 500 µM hydrogen peroxide, which was the positive control, the section in which the fluorescence intensity increased compared to the cells treated with the blank sample was found, and the average fluorescence intensity of the cells within this section was calculated. […]

[2] = target: T2, SOS2 and KRAS G12C interaction (Homo sapiens, UniProt Q07890); format: biochemical; conditions: SOS2, KRAS G12Cs; read-out: Enzyme activity IC50
T2 sequence (Q07890 1-1332): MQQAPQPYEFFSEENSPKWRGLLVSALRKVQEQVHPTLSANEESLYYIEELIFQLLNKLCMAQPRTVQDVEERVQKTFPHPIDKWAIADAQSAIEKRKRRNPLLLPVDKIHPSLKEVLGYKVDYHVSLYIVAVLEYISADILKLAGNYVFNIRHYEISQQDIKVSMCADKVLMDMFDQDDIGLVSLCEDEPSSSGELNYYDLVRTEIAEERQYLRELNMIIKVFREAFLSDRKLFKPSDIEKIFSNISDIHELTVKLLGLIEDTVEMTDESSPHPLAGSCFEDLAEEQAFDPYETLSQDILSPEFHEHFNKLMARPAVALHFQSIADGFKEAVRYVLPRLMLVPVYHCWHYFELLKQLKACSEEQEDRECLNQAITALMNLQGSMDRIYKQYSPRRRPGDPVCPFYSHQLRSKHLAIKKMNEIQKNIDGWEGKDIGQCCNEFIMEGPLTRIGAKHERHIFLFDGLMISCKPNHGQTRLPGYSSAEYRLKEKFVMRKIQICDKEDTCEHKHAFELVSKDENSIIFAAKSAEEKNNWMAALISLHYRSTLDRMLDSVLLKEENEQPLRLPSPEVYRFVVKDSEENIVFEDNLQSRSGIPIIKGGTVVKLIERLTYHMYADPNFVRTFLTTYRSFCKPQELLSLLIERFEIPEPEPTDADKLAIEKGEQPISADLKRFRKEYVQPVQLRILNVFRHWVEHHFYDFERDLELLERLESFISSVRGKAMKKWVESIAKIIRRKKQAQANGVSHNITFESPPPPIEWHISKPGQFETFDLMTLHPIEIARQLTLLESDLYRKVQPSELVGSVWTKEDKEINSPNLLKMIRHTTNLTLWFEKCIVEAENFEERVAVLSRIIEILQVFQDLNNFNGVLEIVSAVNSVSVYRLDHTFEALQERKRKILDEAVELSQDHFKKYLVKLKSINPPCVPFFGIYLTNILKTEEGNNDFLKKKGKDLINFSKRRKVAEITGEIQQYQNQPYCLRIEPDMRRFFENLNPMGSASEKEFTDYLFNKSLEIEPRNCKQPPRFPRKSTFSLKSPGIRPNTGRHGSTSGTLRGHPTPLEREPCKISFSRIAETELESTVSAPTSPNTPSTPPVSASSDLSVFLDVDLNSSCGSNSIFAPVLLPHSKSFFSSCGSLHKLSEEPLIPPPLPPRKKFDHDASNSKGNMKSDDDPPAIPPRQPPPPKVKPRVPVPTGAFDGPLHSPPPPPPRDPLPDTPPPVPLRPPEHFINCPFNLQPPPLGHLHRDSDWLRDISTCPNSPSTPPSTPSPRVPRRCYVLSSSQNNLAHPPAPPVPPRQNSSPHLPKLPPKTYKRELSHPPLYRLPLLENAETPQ

[3] = SOS1, KRAS G12C, 60 minutes at room temperature, read-out: Enzyme activity IC50

IC50 (NCI-H358; 288 h, NCI-H358 (KRAS G12C), 96-well 3D assay plate, 12 days): 136 nM
SMILES: CNCc1ccccc1-c1csc([C@H](C)Nc2nc(C)nc3cc(OC)c(OC)cc23)c1 [BAY-293, (S)-6,7-dimethoxy-2-methyl-N-[1-[4-[2-[(methylamino)methyl]phenyl]thiophene-2-yl]ethyl]quinazolin-4-amine, reference compound]

SMILES: CNCc1ccccc1-c1c[se]c([C@@H](C)Nc2nc(C)nc3cc(OC)c(O[C@H]4CCOC4)cc23)c1 [Example 2, 7-methoxy-2-methyl-N-((R)-1-(4-(2-((methylamino)methyl)phenyl)selenophen-2-yl)ethyl)-6-(((S)-tetrahydrofuran-3-yl)oxy)quinazolin-4-amine]
IC50 [1]: 16.6 nM
IC50 (NCI-H358; NCI-H358, 288 h): 58.7 nM

SMILES: CNCc1ccccc1-c1c[se]c([C@@H](C)Nc2nc(Cl)nc3c2CN(C(=O)C2(OC)CCOCC2)C3)c1 [Example 3, (R)-(2-chloro-4-((1-(4-(2-((methylamino)methyl)phenyl)selenophen-2-yl)ethyl)amino)-5,7-dihydro-6H-pyrolo[3,4-d]pyrimidine-6-yl)(4-methoxytetrahydro-2H-pyran-4-yl)methanone]
IC50 [1]: 34.7 nM
IC50 (NCI-H358; NCI-H358, 288 h): 124 nM

SMILES: CNCc1ccccc1-c1c[se]c([C@@H](C)Nc2nnc(C)c3cnc(N4CCOCC4)cc23)c1 [Example 4, (R)-4-methyl-N-(1-(4-(2-((methylamino)methyl)phenyl)selenophen-2-yl)ethyl)-7-morpholinopyrido[3,4-d]pyridazine-1-amine]
IC50 [1]: 13.4 nM
IC50 (NCI-H358; NCI-H358, 288 h): 51.7 nM

SMILES: COc1cc2nc(C)nc(N[C@H](C)c3cc(-c4ccccc4CN(C)C)c[se]3)c2cc1OC [Example 5, (R)-N-(1-(4-(2-((dimethylamino)methyl)phenyl)selenophen-2-yl)ethyl)-6,7-dimethoxyl-2-methylquinazolin-4-amine]
IC50 [1]: 27.7 nM
IC50 (NCI-H358; NCI-H358, 288 h): 50 nM

SMILES: COc1cc2nc(C)nc(N[C@H](C)c3cc(-c4ccccc4CN4CCCC4)c[se]3)c2cc1OC [Example 6, (R)-6,7-dimethoxyl-2-methyl-N-(1-(4-(2-(pyrrolidine-1-ylmethyl)phenyl)selenophen-2-yl)ethyl)quinazolin-4-amine]
IC50 [1]: 76 nM
IC50 (NCI-H358; NCI-H358, 288 h): 87.5 nM

SMILES: [2H]C([2H])([2H])NCc1ccccc1-c1c[se]c([C@@H](C)Nc2nc(C)nc3cc(OC)c(OC)cc23)c1 [Example 7, (R)-6,7-dimethoxyl-2-methyl-N-(1-(4-(2-(((methyl-d3)amino)methyl)phenyl)selenophen-2-yl)ethyl)quinazolin-4-amine]
IC50 [1]: 19.3 nM
IC50 (NCI-H358; NCI-H358, 288 h): 25.6 nM

IC50 [1, 3]: 16.2 nM
SMILES: COc1cc2nc(C)nc(N[C@H](C)c3cc(-c4ccccc4CN(C)C)c[se]3)c2cc1O[C@H]1CCOC1 [Example 8, N-((R)-1-(4-(2-((dimethylamino)methyl)phenyl)selenophen-2-yl)ethyl)-7-methoxy-2-methyl-6-(((S)-tetrahydrofuran-3-yl)oxy)quinazolin-4-amine]

IC50 [1, 3]: 22.5 nM
SMILES: COc1cc2nc(C)nc(N[C@H](C)c3cc(-c4ccccc4CN4CCCC4)c[se]3)c2cc1O[C@H]1CCOC1 [Example 9, 7-methoxy-2-methyl-N-((R)-1-(4-(2-(pyrrolidine-1-ylmethyl)phenyl)selenophen-2-yl)ethyl)-6-(((S)-tetrahydrofuran-3-yl)oxy)quinazolin-4-amine]

SMILES: Cc1c(C#N)cccc1[C@@H](C)Nc1nnc(C)c2cnc(N3CCOCC3)cc12 [MRTX0902, (R)-2-methyl-3-(1-((4-methyl-7-morpholinopyrido[3,4-d]pyridazine-1-yl)amino)ethyl)benzonitrile, reference compound]
ROS production compared to the blank sample (MIA-PaCa-2): did not increase ROS production
IC50 (NCI-H358; NCI-H358, 288 h): 108 nM
IC50 [2]: 1640 nM
